Source: article PMC10982501, “Synthesis and biological evaluation of novel benzothiazole derivatives as potential anticancer and antiinflammatory agents” (Frontiers in Chemistry, 2024)

How the values were obtained:
[1] = Oil-water partition coefficient (log P) measurement; assay type: physicochemical; conditions: n-octanol/water, room temperature
Experimental: The partition coefficient between n-octanol and water (log Po/w) is the classical descriptor for Lipophilicity ([Daina et al., 2017]). The test methodology followed previously published protocols ([Wang et al., 2021]). At room temperature, two large Erlenmeyer flasks were taken and filled with n-octanol and water, respectively. The flasks were placed in a constant temperature shaker at 150 rpm for 24 h to saturate the solvents. The mixtures were then transferred to separating funnels under normal pressure to obtain water-saturated n-octanol and n-octanol-saturated water for subsequent use. The target compound (2 mg) was accurately weighed and placed in a 2 mL brown volumetric flask. Anhydrous methanol was added to ultrasonically dissolve the compound, and the mixture was diluted to volume and thoroughly shaken to prepare a 1 mg/mL stock solution. The stock solution was further diluted to obtain 1, 1.5, 2, 2.5, 5 and 10 μg/mL reference solutions for construction of a standard curve using a UV-visible spectrophotometer. An excess amount of the analyte was dissolved in water-saturated n-octanol, and the mixture was shaken at 150 rpm for 24 h at constant temperature to obtain a saturated solution. The saturated solution was allowed to stand, centrifuged, and 1 mL of the supernatant was transferred to a 4 mL centrifuge tube. N-octanol saturated water (1 mL) was added, and the mixture was shaken at 150 rpm for 24 h at constant temperature. After standing for 8 h, the mixture was centrifuged. Appropriate amounts of the n-octanol phase before and after equilibration were diluted with methanol, and concentrations were determined from the standard curve to obtain C0 and C1. The concentration in the n-octanol saturated aqueous phase, Cw, was calculated as Cw = C0 - C1. Thus, log Po/w = […].

A431 cells = experiment: MTT cell proliferation assay, A431; assay type: cell-based, human; conditions: for inhibition at 10 µM / IC50: Homo sapiens, A-431, 48 h; for inhibition at 10 µM: read-out: A431 cells inhibition rate; for inhibition at 10 µM / A431 cells inhibition rate: 10 μM; for A431 cells inhibition rate: 48 h; for IC50: read-out: IC50 (mean ± SD) A431
Experimental: (§1) Beas-2b, A431, A549 and H1299 cells were cultured in 96-well plates (5 × 10^3 cells/well) for 16 h, respectively. Subsequently, positive compound 4i and 25 newly synthesized compounds were added at a final concentration of 10 μM or gradient concentrations (0.01, 0.1, 0.5, 1, 5 and 10 μM), co-incubated with the cells for 48 h. MTT (M8180, Solarbio) solutions (5 mg/mL) were then added and incubated for 4 h in the dark. Then, formazan crystals were dissolved with DMSO (D8371, Solarbio), followed by shaking on a shaker (DRAGONLAB, China) for 10 min. Finally, absorbance at 490 nm wavelength for each well was measured with Microplate reader (Molecular Devices, United States) ([Tang et al., 2020]; [Lee et al., 2021]). The results are expressed as mean ± SD from three independent experiments. Cells inhibition rates or IC50 values were calculated using GraphPad Prism 9.5.0.

A549 cells = experiment: MTT cell proliferation assay, A549; assay type: cell-based, human; conditions: for inhibition at 10 µM / IC50: Homo sapiens, A549, 48 h; for inhibition at 10 µM: read-out: A549 cells inhibition rate; for inhibition at 10 µM / A549 cells inhibition rate: 10 μM; for A549 cells inhibition rate: 48 h; for IC50: read-out: IC50 (mean ± SD) A549
Experimental: as §1

H1299 cells = experiment: MTT cell proliferation assay, H1299; assay type: cell-based, human; conditions: for inhibition at 10 µM / IC50: Homo sapiens, NCI-H1299, 48 h; for inhibition at 10 µM: read-out: H1299 cells inhibition rate; for inhibition at 10 µM / H1299 cells inhibition rate: 10 μM; for H1299 cells inhibition rate: 48 h; for IC50: read-out: IC50 (mean ± SD) H1299
Experimental: as §1

Beas-2b cells = experiment: MTT cell proliferation and toxicity assay, Beas-2b; assay type: cell-based, human; conditions: 48 h; for inhibition at 10 µM: Homo sapiens, BEAS-2B, read-out: Beas-2b cells inhibition rate
Experimental: as §1

Row | Structure (SMILES) | logP [1] | IC50 (A431 cells) | IC50 (A549 cells) | IC50 (H1299 cells) | log P [1] | inhibition at 10 µM (A431 cells) | inhibition at 10 µM (A549 cells) | inhibition at 10 µM (H1299 cells) | inhibition at 10 µM (Beas-2b cells) | A431 cells inhibition rate (A431 cells) | A549 cells inhibition rate (A549 cells) | H1299 cells inhibition rate (H1299 cells) | Beas-2b cells inhibition rate (Beas-2b cells; 10 μM)
1 | O=C1c2ccccc2C(=O)N1CCCOc1ccccc1-c1nc2ccccc2s1 [A3, 2-(3-(2-(benzo[d]thiazol-2-yl)phenoxy)propyl)isoindoline-1,3-dione] | 3.63 ± 0.16 | – | – | – | – | 34.2 ± 1.15% | 28.5 ± 2.21% | 30.9 ± 0.77% | 5.25 ± 0.39% | – | – | – | –
2 | Cc1ccc(COc2ccccc2-c2nc3ccccc3s2)cc1 [A6, 2-(2-((4-methylbenzyl)oxy)phenyl)benzo[d]thiazole] | 4.72 ± 0.28 | – | – | – | – | 27.7 ± 1.62% | 20.7 ± 2.31% | 33.9 ± 0.68% | 15.1 ± 3.28% | – | – | – | –
3 | Clc1ccc2nc(NCc3ccccc3)sc2c1 [B8, N-benzyl-6-chlorobenzo[d]thiazol-2-amine] | 3.56 ± 0.16 | 5.36 ± 1 µM | 6.25 ± 0.99 µM | 6.69 ± 0.54 µM | – | > 50% | > 50% | > 50% | 18.1 ± 3.22% | 57.43 ± 3.64% | 65.75 ± 0.96% | 55.22 ± 2.49% | –
4 | O=[N+]([O-])c1ccccc1COc1ccccc1-c1nc2ccccc2s1 [A2, 2-(2-((2-nitrobenzyl)oxy)phenyl)benzo[d]thiazole] | 3.51 ± 0.19 | – | – | – | – | 35.8 ± 2.03% | 33.1 ± 2.34% | 42.4 ± 1.26% | 17.3 ± 3.26% | – | – | – | –
5 | COc1cc(CNc2nc3ccc(Cl)cc3s2)cc(OC)c1 [B6, 6-chloro-N-(3,5-dimethoxybenzyl)benzo[d]thiazol-2-amine] | 3.36 ± 0.18 | – | – | – | – | 43.4 ± 1.61% | 35.2 ± 2.86% | 32.8 ± 0.74% | 20.6 ± 1.32% | – | – | – | –
6 | O=[N+]([O-])c1ccc(CNc2nc3ccc(F)cc3s2)cc1 [B4, 6-fluoro-N-(4-nitrobenzyl)benzo[d]thiazol-2-amine] | 2.67 ± 0.25 | – | – | – | – | 24.3 ± 1.87% | 19.6 ± 1.32% | 25 ± 1.62% | 21.4 ± 2.21% | – | – | – | –
7 | N#Cc1ccc(COc2ccccc2-c2nc3ccccc3s2)cc1 [A8, 4-((2-(benzo[d]thiazol-2-yl)phenoxy)methyl)benzonitrile] | 3.44 ± 0.22 | – | – | – | – | 28.6 ± 1.24% | 24.4 ± 1.22% | 37.3 ± 2.3% | 14.2 ± 3.65% | – | – | – | –
8 | O=[N+]([O-])c1ccc(COc2ccccc2-c2nc3ccccc3s2)cc1 [A4, 2-(2-((4-nitrobenzyl)oxy)phenyl)benzo[d]thiazole] | 3.74 ± 0.35 | – | – | – | – | 35.8 ± 1.02% | 33.3 ± 1.36% | 39.4 ± 1.2% | 10.3 ± 0.64% | – | – | – | –
9 | COc1ccc(CNc2nc3ccc(F)cc3s2)cc1OC [B3, N-(3,4-dimethoxybenzyl)-6-fluorobenzo[d]thiazol-2-amine] | 2.56 ± 0.12 | – | – | – | – | 32.4 ± 2.92% | 22.4 ± 1.34% | 44.6 ± 1.75% | 25.4 ± 2.01% | – | – | – | –
10 | Fc1ccc2nc(NCc3c(Cl)cccc3Cl)sc2c1 [B2, N-(2,6-dichlorobenzyl)-6-fluorobenzo[d]thiazol-2-amine] | 4.25 ± 0.16 | – | – | – | – | 27.5 ± 2.42% | 30.2 ± 2.13% | 31.3 ± 1.14% | 18.6 ± 1.67% | – | – | – | –
11 | Fc1ccc2nc(NCCc3ccccc3)sc2c1 [B1, 6-fluoro-N-phenethylbenzo[d]thiazol-2-amine] | 3.47 ± 0.27 | – | – | – | – | 21.1 ± 2.03% | 18.3 ± 0.93% | 26.3 ± 0.91% | 23.1 ± 1.52% | – | – | – | –
12 | c1ccc(COc2ccccc2-c2nc3ccccc3s2)cc1 [A7, 2-(2-(benzyloxy)phenyl)benzo[d]thiazole] | 3.95 ± 0.15 | – | – | – | – | 15.3 ± 2.21% | 12.2 ± 3.42% | 26.5 ± 1.11% | 11.4 ± 2.65% | – | – | – | –
13 | Clc1cccc(COc2ccccc2-c2nc3ccccc3s2)c1 [A5, 2-(2-((3-chlorobenzyl)oxy)phenyl)benzo[d]thiazol] | 4.51 ± 0.24 | – | – | – | – | 45.7 ± 0.87% | 47.6 ± 1.24% | 35.3 ± 2.24% | 18.2 ± 2.23% | – | – | – | –
14 | Fc1cccc(CNc2nc3ccc(Cl)cc3s2)c1 [B5, 6-chloro-N-(3-fluorobenzyl)benzo[d]thiazol-2-amine] | 3.58 ± 0.11 | 10.8 ± 0.56 µM | 5.44 ± 1 µM | 9.26 ± 1.34 µM | – | > 50% | > 50% | > 50% | 20.6 ± 1.85% | 59.69 ± 3.62% | 58.64 ± 1.01% | 51.34 ± 3.03% | –

Second part, led by results:

Row | logP [1] | IC50 (A431 cells) | IC50 (A549 cells) | IC50 (H1299 cells) | log P [1] | Structure (SMILES) | inhibition at 10 µM (A431 cells) | inhibition at 10 µM (A549 cells) | inhibition at 10 µM (H1299 cells) | inhibition at 10 µM (Beas-2b cells) | A431 cells inhibition rate (A431 cells) | A549 cells inhibition rate (A549 cells) | H1299 cells inhibition rate (H1299 cells) | Beas-2b cells inhibition rate (Beas-2b cells; 10 μM)
15 | 5.69 ± 0.25 | – | – | – | – | COc1cc(CN(Cc2cc(OC)cc(OC)c2)c2nc3ccc(Cl)cc3s2)cc(OC)c1 [D1, 6-chloro-N,N-bis(3,5-dimethoxybenzyl)benzo[d]thiazol-2-amine] | 38.7 ± 1.56% | 15.4 ± 3.46% | 32.7 ± 1.25% | 19.3 ± 1.31% | – | – | – | –
16 | 2.9 ± 0.32 | – | – | – | – | O=C(Nc1nc2ccc(Cl)cc2s1)c1ccccc1F [C7, N-(6-chlorobenzo[d]thiazol-2-yl)-2-fluorobenzamide] | 40.4 ± 1.33% | 44.6 ± 0.94% | 48.28 ± 0.37% | 21.4 ± 2.25% | – | – | – | –
17 | 2.49 ± 0.39 | – | – | – | – | COc1ccc(C(=O)Nc2nc3ccc(F)cc3s2)cc1OC [C3, N-(6-fluorobenzo[d]thiazol-2-yl)-3,4-dimethoxybenzamide] | 12.3 ± 1.51% | 4.38 ± 0.35% | 18 ± 2.52% | 21.3 ± 1.62% | – | – | – | –
18 | 3.06 ± 0.23 | – | – | – | – | O=C(Nc1nc2ccc(F)cc2s1)c1ccc([N+](=O)[O-])cc1 [C4, N-(6-fluorobenzo[d]thiazol-2-yl)-4-nitrobenzamide] | 43.1 ± 1.45% | 35.3 ± 1.82% | 45.2 ± 0.55% | 13.4 ± 1.65% | – | – | – | –
19 | 2.56 ± 0.14 | – | – | – | – | O=C(Nc1nc2ccc(F)cc2s1)c1ccccc1 [C1, N-(6-fluorobenzo[d]thiazol-2-yl)benzamide] | 17.5 ± 1.35% | 19.3 ± 1.07% | 28.3 ± 1.25% | 16.3 ± 1.82% | – | – | – | –
20 | – | – | – | – | 2.93 ± 0.11 | O=C(Nc1nc2ccc(F)cc2s1)c1c(Cl)cccc1Cl [C2, 2,6-dichloro-N-(6-fluorobenzo[d]thiazol-2-yl) benzamide] | – | – | – | – | 5.61 ± 0.26% | 0.27 ± 0.12% | 6.80 ± 0.22% | 12.82 ± 1.76%
21 | 3.05 ± 0.17 | 8.4 ± 1.06 µM | 8.17 ± 0.4 µM | 9.02 ± 0.37 µM | – | O=C(Nc1nc2ccc(Cl)cc2s1)c1ccccc1 [C6, N-(6-chlorobenzo[d]thiazol-2-yl)benzamide] | > 50% | > 50% | > 50% | 20.6 ± 0.52% | 57.73 ± 2.12% | 55.56 ± 2.78% | 59.72 ± 1.84% | –
22 | 2.87 ± 0.15 | 4.35 ± 0.9 µM | 9.82 ± 0.98 µM | 8.94 ± 1.21 µM | – | COc1ccc(C(=O)Nc2nc3ccc(Cl)cc3s2)cc1 [C5, N-(6-chlorobenzo[d]thiazol-2-yl)-4-methoxybenzamide] | > 50% | > 50% | > 50% | 17.2 ± 1.24% | 55.67 ± 2.34% | 56.33 ± 2.96% | 51.98 ± 0.24% | –
